Measurements reported in US9657057B2, “Dipeptide and tripeptide epoxy ketone protease inhibitors” (Onyx Therapeutics, Inc., priority 2013, dated 2017).
Values after ≈ are worked out from the molar mass of the structure shown.

What was measured:
Solubility pH 7 = assay type: physicochemical; details: pH 7, aqueous buffer
β5 = target: T1, β5 (Homo sapiens, UniProt P20618+P28074); assay: ProCISE proteasome subunit assay, β5; assay type: biochemical; details: MOLT4 lysate Hu 1 h
T1 construct: endogenous in cells; host or cells: MOLT-4
Method: (§1) This assay was used to assess the inhibitory activity against each of LMP2, LMP7, MECL1, β1, β2, and β5. Briefly, test compounds were serially diluted in DMSO at 100× concentration, then diluted to 10× in aqueous hypotonic lysis buffer. Lysate from the human acute lymphoblastic leukemia cell line, MOLT-4, was treated for 1 hour at 25° C. with compound at a final 1× concentration. […] Following this, lysate was denatured in guanidine hydrochloride, and subunits bound to probe were isolated with streptavidin-conjugated sepharose beads. Individual subunits were probed with subunit-specific primary antibodies, followed by HRP-conjugated secondary antibodies. A chemiluminescent substrate was used to generate signal associated with HRP binding, which was detected on a plate reader. Luminescent signal was normalized to protein content, then, percent activity calculated relative to DMSO-treated controls to generate IC50 curves.

LMP7 = target: T2, LMP7 (Homo sapiens, UniProt P20618+P28062); assay: ProCISE proteasome subunit assay, LMP7; assay type: biochemical; details: MOLT4 lysate Hu 1 h
T2 construct: endogenous in cells; host or cells: MOLT-4
Method: as §1

| Structure (SMILES) | solubility (Solubility pH 7) | IC50 (β5) | IC50 (LMP7) |
| --- | --- | --- | --- |
| CC1=C(C(=O)N[C@H](C)C(=O)N[C@@H](Cc2c[nH]c3ccccc23)C(=O)N[C@@H](Cc2ccccc2)C(=O)[C@@]2(C)CO2)Cc2ccccc21 [Compound C-2003] | 0.7 µg/mL (≈ 1.13 µM) | – | – |
| CC1=C(C(=O)N[C@@H](C)C(=O)N[C@@H](Cc2c[nH]c3ccccc23)C(=O)N[C@@H](Cc2ccccc2)C(=O)[C@@]2(C)CO2)Cc2ccccc21 [Compound C-2004] | 1.9 µg/mL (≈ 3.07 µM) | – | – |
| COc1ccc(C[C@H](NC(=O)[C@H](C)NC(C)=O)C(=O)N[C@@H](Cc2ccccc2)C(=O)[C@@]2(C)CO2)cc1 [Compound C-2005] | 735 µg/mL (≈ 1480 µM) | – | – |
| COC(=O)N[C@@H](C)C(=O)N[C@@H](Cc1ccc(OC)cc1)C(=O)N[C@@H](Cc1ccccc1)C(=O)[C@@]1(C)CO1 [Compound C-2009, Methyl ((S)-1-(((S)-3-(4-methoxyphenyl)-1-(((S)-1-((R)-2-methyloxiran-2-yl)-1-oxo-3-phenylpropan-2-yl)amino)-1-oxopropan-2-yl)amino)-1-oxopropan-2-yl)carbamate] | 163 µg/mL (≈ 318 µM) | – | – |
| COc1ccc(C[C@H](NC(=O)[C@@H](CC(=O)OC(C)(C)C)NC(=O)OCc2ccccc2)C(=O)N[C@@H](Cc2ccccc2)C(=O)[C@@]2(C)CO2)cc1 [Compound C-2016, (R)-tert-Butyl 3-(((benzyloxy)carbonyl)amino)-4-(((S)-3-(4-methoxyphenyl)-1-(((S)-1-((R)-2-methyloxiran-2-yl)-1-oxo-3-phenylpropan-2-yl)amino)-1-oxopropan-2-yl)amino)-4-oxobutanoate] | – | 279 nM | 69.7 nM |
| COc1ccc(C[C@H](NC(=O)[C@@H](CC(=O)O)NC(=O)OCc2ccccc2)C(=O)N[C@@H](Cc2ccccc2)C(=O)[C@@]2(C)CO2)cc1 [Compound C-2017, (R)-3-(((Benzyloxy)carbonyl)amino)-4-(((S)-3-(4-methoxyphenyl)-1-(((S)-1-((R)-2-methyloxiran-2-yl)-1-oxo-3-phenylpropan-2-yl)amino)-1-oxopropan-2-yl)amino)-4-oxobutanoic acid] | – | 129 nM | 37.2 nM |
| CC1=C(C(=O)N[C@H](C)C(=O)N[C@@H](Cc2c[nH]c3ccccc23)C(=O)N[C@@H](CC2CCCC2)C(=O)[C@@]2(C)CO2)Cc2ccccc21 [Compound C-2047, N—((R)-1-(((S)-1-(((S)-3-cyclopentyl-1-((R)-2-methyloxiran-2-yl)-1-oxopropan-2-yl)amino)-3-(1H-indol-3-yl)-1-oxopropan-2-yl)amino)-1-oxopropan-2-yl)-3-methyl-1H-indene-2-carboxamide] | 0.3 µg/mL (≈ 0.491 µM) | 1100 nM | 68.7 nM |
| COc1ccc(C[C@H](NC(=O)[C@@H](C)NC(=O)c2ccc3[nH]ncc3c2)C(=O)N[C@@H](CC2CCCC2)C(=O)[C@@]2(C)CO2)cc1 [Compound C-2061, N—((R)-1-(((S)-1-(((S)-3-cyclopentyl-1-((R)-2-methyloxiran-2-yl)-1-oxopropan-2-yl)amino)-3-(4-methoxyphenyl)-1-oxopropan-2-yl)amino)-1-oxopropan-2-yl)-1H-indazole-5-carboxamide] | 26.3 µg/mL (≈ 44.6 µM) | – | – |
| COc1ccc(C[C@H](NC(=O)[C@@H](C)NC(=O)c2ccc3[nH]cnc3c2)C(=O)N[C@@H](CC2CCCC2)C(=O)[C@@]2(C)CO2)cc1 [Compound C-2062, N—((R)-1-(((S)-1-(((S)-3-cyclopentyl-1-((R)-2-methyloxiran-2-yl)-1-oxopropan-2-yl)amino)-3-(4-methoxyphenyl)-1-oxopropan-2-yl)amino)-1-oxopropan-2-yl)-1H-benzo[d]imidazole-5-carboxamide] | 56 µg/mL (≈ 95 µM) | – | – |
| COc1ccc(C[C@H](NC(=O)[C@@H](C)NC(=O)c2ccc3cn[nH]c3c2)C(=O)N[C@@H](CC2CCCC2)C(=O)[C@@]2(C)CO2)cc1 [Compound C-2063, N—((R)-1-(((S)-1-(((S)-3-cyclopentyl-1-((R)-2-methyloxiran-2-yl)-1-oxopropan-2-yl)amino)-3-(4-methoxyphenyl)-1-oxopropan-2-yl)amino)-1-oxopropan-2-yl)-1H-indazole-6-carboxamide] | 21.4 µg/mL (≈ 36.3 µM) | – | – |
| COc1ccc(C[C@H](NC(=O)[C@H](C)NC(=O)Cc2cnc(N)s2)C(=O)N[C@@H](CC2=CCCC2)C(=O)[C@@]2(C)CO2)cc1 [Compound C-2066, (S)-2-((S)-2-(2-(2-aminothiazol-5-yl)acetamido)propanamido)-N—((S)-3-(cyclopent-1-en-1-yl)-1-((R)-2-methyloxiran-2-yl)-1-oxopropan-2-yl)-3-(4-methoxyphenyl)propanamide] | 43.6 µg/mL (≈ 74.7 µM) | – | – |
| COc1ccc(C[C@H](NC(=O)[C@H](C)NC(=O)Cc2cnc(N(C)C)s2)C(=O)N[C@@H](CC2=CCCC2)C(=O)[C@@]2(C)CO2)cc1 [Compound C-2067, (S)—N—((S)-3-(cyclopent-1-en-1-yl)-1-((R)-2-methyloxiran-2-yl)-1-oxopropan-2-yl)-2-((S)-2-(2-(2-(dimethylamino)thiazol-5-yl)acetamido)propanamido)-3-(4-methoxyphenyl)propanamide] | 61.6 µg/mL (≈ 101 µM) | – | – |
| COc1ccc(C[C@H](NC(=O)[C@H](C)NC(=O)Cc2cnc(N3CCC3)s2)C(=O)N[C@@H](CC2=CCCC2)C(=O)[C@@]2(C)CO2)cc1 [Compound C-2068, (S)-2-((S)-2-(2-(2-(azetidin-1-yl)thiazol-5-yl)acetamido)propanamido)-N—((S)-3-(cyclopent-1-en-1-yl)-1-((R)-2-methyloxiran-2-yl)-1-oxopropan-2-yl)-3-(4-methoxyphenyl)propanamide] | 54.6 µg/mL (≈ 87.5 µM) | – | – |
| COc1ccc(C[C@H](NC(=O)[C@H](C)NC(=O)Cc2cnc(N3CCCC3)s2)C(=O)N[C@@H](CC2=CCCC2)C(=O)[C@@]2(C)CO2)cc1 [Compound C-2069, (S)—N—((S)-3-(cyclopent-1-en-1-yl)-1-((R)-2-methyloxiran-2-yl)-1-oxopropan-2-yl)-3-(4-methoxyphenyl)-2-((S)-2-(2-(2-(pyrrolidin-1-yl)thiazol-5-yl)acetamido)propanamido)propanamide] | 26.6 µg/mL (≈ 41.7 µM) | – | – |
| COc1ccc(C[C@H](NC(=O)[C@H](C)NC(=O)Cc2cnc(N)o2)C(=O)N[C@@H](CC2=CCCC2)C(=O)[C@@]2(C)CO2)cc1 [Compound C-2070, (S)-2-((S)-2-(2-(2-aminooxazol-5-yl)acetamido)propanamido)-N—((S)-3-(cyclopent-1-en-1-yl)-1-((R)-2-methyloxiran-2-yl)-1-oxopropan-2-yl)-3-(4-methoxyphenyl)propanamide] | 1020 µg/mL (≈ 1800 µM) | – | – |
| COc1ccc(C[C@H](NC(=O)[C@@]2(CO)CCCN2)C(=O)N[C@@H](Cc2ccccc2)C(=O)[C@@]2(C)CO2)cc1 [Compound C-3005] | 1920 µg/mL (≈ 3760 µM) | – | – |
| COc1ccc(C[C@H](NC(=O)C(C)(C)N)C(=O)N[C@@H](Cc2ccccc2)C(=O)[C@@]2(C)CO2)cc1 [Compound C-3006, 2-Amino-N—((S)-3-(4-methoxyphenyl)-1-(((S)-1-((R)-2-methyloxiran-2-yl)-1-oxo-3-phenylpropan-2-yl)amino)-1-oxopropan-2-yl)-2-methylpropanamide] | 385 µg/mL (≈ 823 µM) | – | – |
